Experimental data as given in patent US20180296537A1, “METHODS AND COMPOSITIONS FOR DIAGNOSING, TREATING, AND MONITORING TREATMENT OF SHANK3 DEFICIENCY ASSOCIATED DISORDERS” (Novartis AG, priority 2015, published 2018).

Test system: CA1 pyramidal neurons
Assay: Dendritic spine density in hippocampal organotypic slice cultures
Format: cell-based, mouse
Protocol: Wilde type (C57B1/6) mice were housed in a temperature-controlled room and maintained on a 12 hr light/dark cycle. Food and water were available ad libitum and experiments were carried out in accordance with the local authorization guidelines for the care and use of laboratory animals. Slice cultures were established according to the procedure described by Stoppini and colleagues (Galimberti et al., 2006; Stoppini et al., 1991). […] For organotypic slice cultures, brains of P6-P9 transgenic mice were dissected in cold MEM (GIBCO) medium, and hippocampal coronal sections of 400 μm were obtained with a tissue chopper (McIlwain). Slices were selected, placed on Millicell (Millipore, PICM03050) and cultured in 6-well dishes at 35° C. and 5% CO2 in the presence of 1 ml of medium. The entire slice isolation procedure took about 30 min. The culture medium was exchanged every third day. Treatments were performed in fresh culture medium for the indicated time periods.
Brain slices were transfected with plasmids encoding shCont, and shShank3 using helios gene gun system (Bio-Rad Laboratories, #165-2431) as previously described (Proenca et al., 2013). Subsequently, slices were fixed, stained, mounted, and analyzed following the protocols described below in the immunohistochemistry and microscopy paragraphs.
Slices were fixed for 10 minutes in 4% PFA, washed in PBS and blocked for 4 hr at room temperature in 0.3% Triton X-100 20% Horse Serum/PBS (blocking solution). GFP primary antibody was incubated for 24 hr at 4° C. in the blocking solution. Afterwards, slices were washed in PBS, incubated for 2 hr in 0.3% Triton X-100/PBS with Alexa Fluor® 488 Donkey anti-chicken secondary antibody (Life technologies). Finally, slices were washed in PBS, incubated 10 minutes with DAPI (Life technologies) and mounted on glass slides using ProLong mountant (Life technologies).
High resolution images were acquired on an upright Zeiss LSM700 confocal microscope, using a Plan-Neofluar 100×/1.3 oil immersion objective. For the analysis of dendritic spine density, confocal 3D stacks were acquired in CA1 region for each experiment. To quantify spine density, a stretch of approximately 30 μm was selected on secondary dendrites originating at the branch point from the primary dendrite. Only secondary dendrites were considered to reduce variability. Dendritic length was measured using the ImageJ plugin, Simple Neurite tracer, and spine density manually counted using the Cell Counter plugin.
The above findings implicate CLK2 overexpression as a specific anomaly that is causative for attenuated Akt activity in neurons deficient for Shank3. Consequently, inhibiting CLK2 activity or directly activating Akt would restore neuronal impairments associated with Shank3 loss of function. First, a small-molecule Akt-activator, SC79, was tested for its ability to restore Akt phosphorylation (FIG. 5A). SC79 binds directly to Akt to facilitate an ‘open’ conformation of the protein that is accessible to upstream activating kinases (eg. PDK1). This obviates the need for PtdIns(3,4,5)P3 (PIP3) production and recruitment of Akt to the plasma membrane (Rodgers, Cell Metab. 11, 23-34, 2010). […] Decreased principal neuron dendritic spine density has frequently been observed in Shank3 loss of function models (Durand et al., 2007, Nature Genetics 39: 25-27; Peca et al., 2011, Nature 472: 437-442; Verpelli et al., 2011, The Journal of Biological Chemistry 286: 34839-34850). Knock-down of Shank3 in hippocampal organotypic slice cultures, via biolistic transfection of shRNA vectors, faithfully recapitulated this phenotype in CA1 pyramidal neurons, whereby a two-fold reduction in apical dendrite spine density resulted (FIG. 6A). […]

SMILES | spine density (Shank3 knock down neurons, TG003 24 hours) | dendritic spine density (knockdown of Shank3 with additional shRNAs, 24 h pre-treatment with TG003, fixed DIV 14) | spine density (Shank3 knock down neurons, 4 μg/ml SC79, 24 hr, DIV 14) | spine density (control neurons, 4 μg/ml SC79, 24 hr, DIV 14)
CCN1/C(=C/C(C)=O)Sc2ccc(OC)cc21 [TG003, (Z)-1-(3-ethyl-5-methoxy-2,3-dihydrobenzothiazol-2-ylidene)propan-2-one] | increased spine density in Shank3 knock down neurons to control levels | corrected | – | –
CCOC(=O)C1=C(N)Oc2ccc(Cl)cc2C1C(C#N)C(=O)OCC (stereo not shown) [SC79] | – | – | rescued the spine density impairment in Shank3 knock down neurons | without significantly affecting controls
